#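 Protocol summary: plate cells (96-well), add compound at 5 concentrations, incubate 48 h, interpolate endpoints linearly. GI50 is the concentration that inhibits growth by half.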 The source made the active and inactive calls. No stated cut-off is given here; in the data, active = GI50 up to about 1.1 µM and inactive = higher.
# Assays:
# Assay in all cases: inhibition of tumour cell growth, NCI panel, 48 h
# [1] = tested on: A549
# [2] = tested on: UACC-257
# [3] = tested on: HOP-92
# [4] = tested on: U-251
# [5] = tested on: DMS-273
# [6] = tested on: CAKI-1
# [7] = tested on: K562
# [8] = tested on: Malme-3M
# [9] = tested on: EKVX
# [10] = tested on: IGROV-1
# [11] = tested on: OVCAR-3
# [12] = tested on: LOX IMVI
# [13] = tested on: HT-29
# [14] = tested on: HOP-62
# [15] = tested on: HCT-15
# [16] = tested on: LXFL 529
# [17] = tested on: SR
# [18] = tested on: SF-268
# [19] = tested on: TK-10
# [20] = tested on: MOLT-4
# [21] = tested on: NCI-H522
# [22] = tested on: SNB-78
# [23] = tested on: ACHN
# [24] = tested on: M19-MEL
# [25] = tested on: SK-MEL-5
# [26] = tested on: SK-MEL-28
# [27] = tested on: M14
# [28] = tested on: SK-MEL-2
# [29] = tested on: UO-31
# [30] = tested on: RXF 393
# [31] = tested on: SF-295
# [32] = tested on: NCI-H23
# [33] = tested on: SW-620
# [34] = tested on: NCI-H460
# [35] = tested on: COLO 205
# [36] = tested on: SK-OV-3
# [37] = tested on: DMS-114
# [38] = tested on: OVCAR-5
# [39] = tested on: SN12C
# [40] = tested on: SNB-75
# [41] = tested on: SF-539
# [42] = tested on: HCT-116
# [43] = tested on: XF498
# [44] = tested on: OVCAR-8
# [45] = tested on: DLD-1
# [46] = tested on: OVCAR-4
# [47] = tested on: CCRF-CEM
# [48] = tested on: UACC-62
# [49] = tested on: 786-0
# [50] = tested on: KM12
# [51] = tested on: HOP-18
# [52] = tested on: A498
# [53] = tested on: SNB-19
# [54] = tested on: RPMI-8226
# [55] = tested on: HL-60
# [56] = tested on: NCI-H226
# [57] = tested on: MCF7
# [58] = tested on: HCC 2998
# [59] = tested on: NCI/ADR-RES
# [60] = tested on: KM-20L2
structure (smiles),measurement,setting,value
O=C1NC2(CCCCC2)C2CCCCC=C12 (centres undefined),GI50,[1],> 100 µM (inactive)
same,GI50,[2],> 100 µM (inactive)
same,GI50,[3],> 100 µM (inactive)
same,GI50,[4],> 100 µM (inactive)
same,GI50,[5],> 100 µM (inactive)
same,GI50,[6],> 100 µM (inactive)
same,GI50,[7],> 100 µM (inactive)
same,GI50,[8],> 100 µM (inactive)
same,GI50,[9],> 100 µM (inactive)
same,GI50,[10],> 100 µM (inactive)
same,GI50,[11],> 100 µM (inactive)
same,GI50,[12],> 100 µM (inactive)
same,GI50,[13],> 100 µM (inactive)
same,GI50,[14],> 100 µM (inactive)
same,GI50,[15],> 100 µM
same,GI50,[16],> 100 µM (inactive)
same,GI50,[17],> 100 µM (inactive)
same,GI50,[18],> 100 µM (inactive)
same,GI50,[19],> 100 µM (inactive)
same,GI50,[20],> 100 µM (inactive)
same,GI50,[21],> 100 µM (inactive)
same,GI50,[22],> 100 µM (inactive)
same,GI50,[23],> 100 µM (inactive)
same,GI50,[24],> 100 µM (inactive)
same,GI50,[25],> 100 µM (inactive)
same,GI50,[26],> 100 µM (inactive)
same,GI50,[27],> 100 µM (inactive)
same,GI50,[28],> 100 µM (inactive)
same,GI50,[29],> 100 µM (inactive)
same,GI50,[30],> 100 µM (inactive)
same,GI50,[31],> 100 µM (inactive)
same,GI50,[32],> 100 µM (inactive)
same,GI50,[33],> 100 µM (inactive)
same,GI50,[34],> 100 µM (inactive)
same,GI50,[35],> 100 µM (inactive)
same,GI50,[36],> 100 µM (inactive)
same,GI50,[37],> 100 µM (inactive)
same,GI50,[38],> 100 µM (inactive)
same,GI50,[39],> 100 µM (inactive)
same,GI50,[40],> 100 µM (inactive)
same,GI50,[41],> 100 µM (inactive)
same,GI50,[42],> 100 µM (inactive)
same,GI50,[43],> 100 µM (inactive)
same,GI50,[44],> 100 µM (inactive)
same,GI50,[45],> 100 µM (inactive)
same,GI50,[46],> 100 µM (inactive)
same,GI50,[47],> 100 µM (inactive)
same,GI50,[48],> 100 µM (inactive)
same,GI50,[49],> 100 µM (inactive)
same,GI50,[50],> 100 µM (inactive)
same,GI50,[51],> 100 µM (inactive)
same,GI50,[52],> 100 µM (inactive)
same,GI50,[53],> 100 µM (inactive)
same,GI50,[54],> 100 µM (inactive)
same,GI50,[55],> 100 µM (inactive)
CC(=O)OC1C(O)C(C)OC(OC(=O)C2CCC3C(C2)OC2(CC(OC(=O)/C=C/c4ccccc4)C(C)CO2)C32CO2)C1OC1OC(C)C(O)C(O)C1O (centres undefined),GI50,[1],0.118 µM (active)
same,GI50,[2],0.0325 µM (active)
same,GI50,[3],0.0325 µM (active)
same,GI50,[4],0.04 µM (active)
same,GI50,[5],0.0416 µM (active)
same,GI50,[6],2.08 µM (inactive)
same,GI50,[7],0.0383 µM (active)
same,GI50,[8],0.0378 µM (active)
same,GI50,[9],0.0417 µM (active)
same,GI50,[56],0.0435 µM (active)
same,GI50,[10],0.0378 µM (active)
same,GI50,[11],0.0578 µM (active)
same,GI50,[12],0.115 µM (active)
same,GI50,[13],0.0419 µM (active)
same,GI50,[14],0.0794 µM (active)
same,GI50,[15],3.96 µM
same,GI50,[57],0.0325 µM (active)
same,GI50,[58],0.0373 µM (active)
same,GI50,[18],0.0362 µM (active)
same,GI50,[20],0.0337 µM (active)
same,GI50,[21],0.0325 µM (active)
same,GI50,[22],0.0352 µM (active)
same,GI50,[24],0.0332 µM (active)
same,GI50,[25],0.0332 µM (active)
same,GI50,[26],0.0355 µM (active)
same,GI50,[28],0.0325 µM (active)
same,GI50,[29],7.78 µM (inactive)
same,GI50,[30],0.0644 µM (active)
same,GI50,[31],0.0776 µM (active)
same,GI50,[32],0.0467 µM (active)
same,GI50,[33],0.0504 µM (active)
same,GI50,[34],0.0448 µM (active)
same,GI50,[35],0.0341 µM (active)
same,GI50,[36],0.0586 µM (active)
same,GI50,[37],0.0371 µM (active)
same,GI50,[38],0.091 µM (active)
same,GI50,[39],0.0514 µM (active)
same,GI50,[40],0.0468 µM (active)
same,GI50,[41],0.0448 µM (active)
same,GI50,[59],21.7 µM (inactive)
same,GI50,[42],0.038 µM (active)
same,GI50,[43],0.0504 µM (active)
same,GI50,[44],0.0789 µM (active)
same,GI50,[45],0.335 µM (active)
same,GI50,[60],0.0425 µM (active)
same,GI50,[46],0.0325 µM (active)
same,GI50,[47],0.0342 µM (active)
same,GI50,[48],0.039 µM (active)
same,GI50,[50],0.0371 µM (active)
same,GI50,[51],0.113 µM (active)
same,GI50,[52],0.0702 µM (active)
same,GI50,[53],0.0399 µM (active)
same,GI50,[54],0.0361 µM (active)
same,GI50,[55],0.0336 µM (active)
